# Test results taken from PubChem BioAssay AID1996.
# Conditions: buffer; pH 7.4; 200.0 µM
row,SMILES,solubility kinetic
1,O=C(COC(=O)Cc1cccs1)Nc1cc(S(=O)(=O)N2CCOCC2)ccc1Cl,56.5 µg/mL
2,O=C(NCc1ccc(F)cc1)Nc1cccc([N+](=O)[O-])c1,1 µg/mL
3,O=C(O)CCN1CCN(S(=O)(=O)c2ccc3ccccc3c2)CC1,44.5 µg/mL
4,O=C1CC(C(=O)Nc2cccc(F)c2)n2c(nc3ccccc32)N1 (centres undefined),0.9 µg/mL
5,CN=C(C)/C(C(=O)OC)=C(/O)c1ccc(Cl)cc1Cl,34 µg/mL
6,CCc1ccc(C(=O)COC(=O)C2=NN(c3ccccc3)C(=O)CC2)cc1,> 54.7 µg/mL
7,CCC1SC(=Nc2cccc(C)c2)NC1=O (centres undefined),> 35.1 µg/mL
8,CCN(C(=O)CN1C(=O)CN(C)C1=O)c1cccc2ccccc12,> 48.8 µg/mL
9,CSCC[C@H](NC(=O)Nc1ccc(OC(F)(F)F)cc1)C(=O)O,> 52.8 µg/mL
10,O=C(NN1CCOCC1)c1ccccc1,> 30.9 µg/mL
11,O=C(Nc1ccc(C(=O)O)cc1)/C(=C\c1ccco1)NC(=O)c1ccco1,> 54.9 µg/mL
12,CN1CCCN(S(=O)(=O)c2ccc3ccccc3c2)CC1,> 45.7 µg/mL
13,COCCNC(=O)c1ccc2c(c1)CCN2S(C)(=O)=O,44.7 µg/mL
14,CCC(=O)Nc1ccc(NC(=O)CCc2ccccc2)cn1,44.5 µg/mL
15,CC(C)CCn1cnc2c1c(=O)[nH]c(=O)n2Cc1ccccc1,29.8 µg/mL
16,COc1cc(OC)c(N(C)S(=O)(=O)c2cccc(C(=O)Nc3nccs3)c2)cc1Cl,4.2 µg/mL
17,CCSc1nsc(NC(=O)Nc2cccc(C(C)=O)c2)n1,1.6 µg/mL
18,C#CCN(CC=C)C(=O)c1ccc2nc(C3CCCCC3)oc2c1,43.5 µg/mL
19,COc1cc(NC(=O)Nc2cc(C)on2)cc(OC)c1OC,37.8 µg/mL
20,COc1ccc(Nc2cc(C)c3c(O)cccc3n2)cc1,22.1 µg/mL

row,SMILES,solubility kinetic
1,Cc1ccc(CNc2cnccn2)s1,30 µg/mL
2,COc1ccccc1CC(=O)NC(=O)c1ccccc1O,41.5 µg/mL
3,CC(=O)Nc1ccc2c(c1)nc(C)n2-c1ccccc1,> 39.8 µg/mL
4,CCCn1c(=O)c2[nH]c(C3CCCC3)nc2n(CCC)c1=O,3.1 µg/mL
5,CC1CCCC(NC(=O)COC(=O)c2ccc([N+](=O)[O-])o2)C1C (centres undefined),18.4 µg/mL
6,CC(C)(C)C(=O)N1CCN(c2ccnc3cc(Cl)ccc23)CC1,45 µg/mL
7,Cc1cc(NC(=O)CSc2c[nH]c3ccccc23)no1,> 43.1 µg/mL
8,CCc1ccc(/C=C2/C(=O)NC(=O)N2C(C)=O)cc1,18.6 µg/mL
9,Cc1cccc(NC(=O)NCCN2CCN(c3ccccc3)CC2)c1C,11.5 µg/mL
10,O=C(O)c1cccc(Nc2ccc3nonc3c2[N+](=O)[O-])c1,35.9 µg/mL
11,CC(=O)Nc1c(O)c2cccc3c2n(c1=O)CCC3,36.5 µg/mL
12,CCOC(=O)c1cc2cc(OCc3ccccc3)ccc2nc1C,< 0.7 µg/mL
13,Cc1nc2oc3ccc(Cl)cc3c(=O)c2cc1C(=O)O,> 43.5 µg/mL
14,CC1CC(C)(C)CC2(C1)NC(=O)N(CC(=O)N1CCN(S(=O)(=O)c3cccc(F)c3)CC1)C2=O (centres undefined),4.9 µg/mL
15,C=CCN(c1ccccc1OC)S(=O)(=O)c1cccc(C(=O)OC2CCOC2=O)c1 (centres undefined),56.7 µg/mL
16,O=c1ccnc(Nc2ccc([N+](=O)[O-])cc2)[nH]1,> 34.8 µg/mL
17,O=C1CCCN1C(=O)CSc1ccc2ccccc2n1,41.9 µg/mL
18,O=S(=O)(NCc1ccc2c(c1)OCO2)c1ccc(F)c(F)c1,47.7 µg/mL
19,O=C(Nc1cccc(Cl)c1N1CCOCC1)c1cccnc1,> 47.7 µg/mL
20,COc1ccc(NC(=O)C2=CN3CCS(=O)(=O)N=C3C=C2)c(OC)c1,37.8 µg/mL

row,SMILES,solubility kinetic
1,Cc1ccc(NC(=O)CCN2C(=O)c3ccccc3C2=O)cc1C,4.6 µg/mL
2,CCN(C(=S)NCCOC)c1cccc2ccccc12,12.9 µg/mL
3,Cc1cc(=O)oc2cc(OCC(=O)Nc3nccs3)ccc12,4.1 µg/mL
4,COc1ccc(C(=O)N2CCc3cc4c(cc3C2C)OCCCO4)cc1 (centres undefined),> 53 µg/mL
5,CC1CC(C)CN(CC(=O)N2CCOCC2)C1.Cl (centres undefined),> 41.5 µg/mL
6,COC(=O)c1ccc(NC(=O)c2cccc(NC(=O)c3ccco3)c2)cc1,< 0.4 µg/mL
7,O=C(NCC(O)CO)c1csc(Nc2cccc3ccccc23)n1 (centres undefined),38.5 µg/mL
8,COC(=O)c1sc(-c2ccccc2)cc1NC(C)=O,1.7 µg/mL
9,O=C(CSc1ccc([N+](=O)[O-])cc1)Nc1cccc(S(=O)(=O)N2CCOCC2)c1,17.1 µg/mL
10,COc1ccc(OCC(=O)Nc2ccncc2)cc1,> 38.7 µg/mL
11,COc1ccc(C(CNC(=O)c2cccc(S(=O)(=O)N3CCc4ccccc43)c2)N(C)C)cc1 (centres undefined),39.3 µg/mL
12,Cc1ccc2nc(C)c3c(c2c1)N(c1ccc(F)cc1)CC3,40.6 µg/mL
13,N#C/C(=C\c1ccc2c(c1)OCO2)C(N)=S,5.8 µg/mL
14,O=C(Nc1ccccc1)C1C2CCCCC21 (centres undefined),1.9 µg/mL
15,COc1cccc(NC(=O)c2nc(S(C)(=O)=O)ncc2Cl)c1,33.6 µg/mL
16,O=C(NCCCCc1ccccc1)c1ccc(F)cc1,1.4 µg/mL
17,CCc1ccc2[nH]c(C(=O)Nc3ccc(C)c(F)c3)cc2c1,0.9 µg/mL
18,O=C(COC(=O)c1c[nH]c2ccccc12)Nc1ccc(F)cc1,3.1 µg/mL
19,C=CCN1C(=O)C(CC(=O)O)SC1=Nc1ccc(C(=O)O)cc1 (centres undefined),49.2 µg/mL
